# Legend:
# Plasmodium falciparum [1] = experiment: Antiplasmodial activity against Plasmodium falciparum K1 infected human erythrocytes by [3H]hypoxanthine uptake; format: functional, organism-based
# Plasmodium falciparum [2] = experiment: Antiplasmodial activity against chloroquine-sensitive Plasmodium falciparum D6 infected human erythrocytes by [3H]hypoxanthine uptake; format: functional, organism-based
# Plasmodium falciparum [3] = experiment: Antiplasmodial activity against chloroquine-resistant Plasmodium falciparum W2 infected human erythrocytes by [3H]hypoxanthine uptake; format: functional, organism-based
# Plasmodium yoelii [4] = experiment: Antimalarial activity as reduced parasitaemia against Plasmodium berghei yoelii infected Swiss albino mice (Mus musculus) at 5 mg/kg/day peroral dose for 4 days; format: functional; parameters: scale not given: the % may be the effect or the level left; conditions: route oral
# Plasmodium berghei [5] = experiment: Antimalarial activity as reduced parasitaemia against Plasmodium berghei infected Swiss albino mice (Mus musculus) at 5 mg/kg/day peroral dose for 4 days; format: functional; parameters: scale not given: the % may be the effect or the level left; conditions: route oral
# Plasmodium berghei [6] = experiment: Antimalarial activity as reduced parasitaemia against Plasmodium berghei infected Swiss albino mice (Mus musculus) at 50 mg/kg/day peroral dose for 4 days; format: functional; parameters: scale not given: the % may be the effect or the level left; conditions: route oral
# Plasmodium yoelii [7] = experiment: Antimalarial activity as reduced parasitaemia against Plasmodium berghei yoelii infected Swiss albino mice (Mus musculus) at 50 mg/kg/day peroral dose for 4 days; format: functional; parameters: scale not given: the % may be the effect or the level left; conditions: route oral
Compound,IC50 (Plasmodium falciparum [1]) [µg/mL],IC50 (Plasmodium falciparum [2]) [µg/mL],IC50 (Plasmodium falciparum [3]) [µg/mL],Activity (Plasmodium yoelii [4]) [%],Activity (Plasmodium berghei [5]) [%],Activity (Plasmodium berghei [6]) [%],Activity (Plasmodium yoelii [7]) [%]
C[C@@H]1CC[C@H]2[C@@H](C)C(=O)O[C@@H]3O[C@@]4(C)CC[C@@H]1[C@]32OO4 [ARTEMISININ],0.0033,0.0025,0.0027,–,–,–,–
CCN(CC)CCCC(C)Nc1ccnc2cc(Cl)ccc12 (stereo unspecified) [CHLOROQUINE],–,–,–,1.65,2.2,–,–
C[n+]1c2ccccc2cc2[n-]c3ccccc3c21.Cl [CRYPTOLEPINE HYDROCHLORIDE],0.062,0.041,0.052,–,–,15.6,10.8
C[n+]1c2ccccc2cc2[n-]c3ccccc3c21 [CRYPTOLEPINE],0.033,0.027,0.041,–,–,45.4,13.7
Cn1c2c3ccccc3nc-2c(O)c2ccccc21 [HYDROXYCRYPTOLEPINE],0.045,0.031,0.059,–,–,43.2,–
OC(c1cc(C(F)(F)F)nc2c(C(F)(F)F)cccc12)C1CCCCN1 (stereo unspecified) [MEFLOQUINE],–,0.0063,0.0051,–,–,–,–
Cn1c2nc3ccccc3c-2cc2ccccc21 [NEOCRYPTOLEPINE],0.051,0.035,0.065,–,–,–,–
c1ccc2nc3c(cc2c1)[nH]c1ccccc13 [QUINDOLINE],0.087,0.063,0.108,–,–,48.2,42.1
C=C[C@H]1CN2CC[C@H]1C[C@H]2[C@H](O)c1ccnc2ccc(OC)cc12 [QUININE],0.0352,0.0176,–,–,–,–,–

# Source: ChEMBL document CHEMBL1145685, “In vitro and in vivo antiplasmodial activity of cryptolepine and related alkaloids from Cryptolepis sanguinolenta” (J Nat Prod, 1997)
